From patent US12060388B2, “Cell-penetrating peptides and methods of use thereof” (priority 2018, dated 2024)

Tests used:
Assay type in all cases: cell-based
HPV16 PsV [1] = test: HPV16 PsV internalization in peptide-treated HeLa-S3 cells, anti-L1 immunofluorescence; conditions: 14 μM, MOI of 50, 8 or 16 h at 37° C.
Procedure: HeLa-S3 cells were incubated with 14 μM P16/16 or vehicle for one hour, followed by infection with HPV16 PsV at MOI of 50 at 4° C. for 2 h. Cells were washed with PBS to remove loosely-bound PsV and then shifted to 37° C. to allow virus internalization. After 8 or 16 h at 37° C., samples were fixed with 4% paraformaldehyde, permeabilized with 1% saponin, and stained with anti-L1 antibody. Cells were also stained with DAPI to visualize nuclei and examined by a Leica SP5 confocal microscope.
For the internalization experiments, 5×10^4 HeLa-S3 cells were grown on glass coverslips for 16 hours. After one-hour incubation with or without peptides, PsV at MOI of 50 were added and incubated at 4° C. for 2 hours, washed with PBS three times to remove loosely bound PsV, and shifted to 37° C.to initiate infection. As a control, cells were incubated with the solution used to dissolve peptides alone. At the indicated times post-infection, samples were fixed, permeabilized and stained with anti-L1 and AlexaFluor 488 conjugated secondary antibody. Cells were analyzed by a Leica SP5 confocal microscope.

TGN46 / HPV16 L1 = test: Proximity ligation assay for L1 and TGN46 in peptide-treated infected cells; conditions: 14 μM, MOI of 200, 16 h.p.i.
Procedure: HeLa-S3 cells grown on glass coverslips for 16 hours were incubated for one hour with or without 14 μM P16/16, followed by mock-infection or infection with HPV16 PSV at MOI of 200. 8 and 16 h.p.i., cells were processed for PLA with anti-L1 antibody and an antibody recognizing EEA1 (FIG. 20A) or TGN46 (FIG. 20B). PLA was performed as in FIG. 19B. The PLA signal for EEA1/L1 was normalized to that of cells infected with HPV16 PsV in the absence of peptide at 8 h.p.i., while the TGN46/L1 signal was normalized to untreated cells at 16 h.p.i.
For the proximity ligation assay, after an hour incubation with peptides, HeLa-S3 cells were infected with wild-type PSV at MOI of 200 or mutant PsV containing the same number of reporter plasmid genomes. Infected cells were fixed at 8 or 16 h.p.i., permeabilized, and incubated with 1:100 dilutions of anti-L1 antibody and an antibody recognizing EEA1, TGN46, or VPS35. […] The nuclei were stained by using Abcam fluorescence mounting medium with DAPI and images were acquired by a Leica SP5 inverted fluorescence microscope. […] The images were processed by Fiji and quantitatively analyzed by BlobFinder software to measure total fluorescence intensity in each sample. The average fluorescence intensity per cell in each sample was normalized to the control sample as indicated in each experiment. […]

HPV5 PsV = test: Peptide inhibition of HPV5 PsV infection of HeLa-S3 cells, flow cytometry for HcRed; conditions: 14 μM peptide, MOI of one, 48 h.p.i.
From the text: FIG. 18A (top) depicts sequences of L2 peptides. […] Amino acid substitutions in the CPP or RBS mutant peptides are shown in orange and blue, respectively. Bottom: RBS and flanking sequences of indicated HPV L2 proteins or DMT1-II. FIG. 18B depicts an inhibitory dose-response curve for P16/16 peptide. 5×10^4 HeLa-S3 in 24-well plates were pretreated with various concentrations of P16/16 for one hour prior to infection with HPV pseudovirus (PsV) at multiplicity of infection (MOI) of 1. Peptide was left in the medium for the duration of the experiment. Cells were assessed by flow cytometry to determine the fraction of cells expressing reporter protein HcRed at 48 hours post-infection (h.p.i.). […] Forty-eight h.p.i., cells were assessed by flow cytometry to determine fraction of cells expressing reporter protein HcRed. […] HaCaT keratinocytes were infected at MOI of 1 with HPV16 PsV in the presence and absence of 14 μM P16/16, and infectivity was assessed 48 h.p.i. by flow cytometry for HcRed fluorescence. […] Successful infection by HPV16 and HPV16 PsV was assessed by quantitative reverse transcription-PCR (qRT-PCR) for expression of HPV early region and HcRed mRNA, respectively, and normalized to infection by the cognate virus in the absence of peptide. Background signal determined with non-cognate primers was <0.01%. […]

HPV16 pseudovirus (PsV) = test: Peptide inhibition of HPV16 PsV infection of HeLa-S3 cells, flow cytometry for HcRed
From the text: FIG. 18A (top) depicts sequences of L2 peptides. […] Amino acid substitutions in the CPP or RBS mutant peptides are shown in orange and blue, respectively. Bottom: RBS and flanking sequences of indicated HPV L2 proteins or DMT1-II. FIG. 18B depicts an inhibitory dose-response curve for P16/16 peptide. 5×10^4 HeLa-S3 in 24-well plates were pretreated with various concentrations of P16/16 for one hour prior to infection with HPV pseudovirus (PsV) at multiplicity of infection (MOI) of 1. Peptide was left in the medium for the duration of the experiment. Cells were assessed by flow cytometry to determine the fraction of cells expressing reporter protein HcRed at 48 hours post-infection (h.p.i.). […] FIG. 18C depicts 5×10^4 HeLa-S3 in 24-well plates were pretreated with 14 μM of the indicated peptide for one hour, followed by infection with HPV PSV at MOI of one. Peptides were left in the medium for the duration of the experiment. As a control, cells were incubated with the solution used to dissolve peptide. Forty-eight h.p.i., cells were assessed by flow cytometry to determine fraction of cells expressing reporter protein HcRed. […] For the comparison of P16/16 to P16/6A, P16/3R, and PDM/16 for HPV16 PsV, **, p<0.01; ***, p<0.001. […] FIG. 18D depicts inhibition of HPV infection of HaCaT cells. HaCaT keratinocytes were infected at MOI of 1 with HPV16 PsV in the presence and absence of 14 μM P16/16, and infectivity was assessed 48 h.p.i. by flow cytometry for HcRed fluorescence. FIG. 18E depicts inhibition of authentic HPV16. HeLa cells were infected with HPV16 harvested from organotypic cultures of human keratinocytes or with HPV16 PsV in the presence (grey bars) or absence (black bars) of P16/16. Successful infection by HPV16 and HPV16 PsV was assessed by quantitative reverse transcription-PCR (qRT-PCR) for expression of HPV early region and HcRed mRNA, respectively, and normalized to infection by the cognate virus in the absence of peptide. Background signal determined with non-cognate primers was <0.01%.
To assess the effect of peptides on viral infection, 5×104 HeLa-S3 in 24-well plates were pretreated with peptides for one hour, followed by infection with wild-type HPV PsV at 37° C. at MOI of ˜1 or with mutant PsV containing an equivalent number of encapsidated reporter plasmids. Peptides were left in the medium for the duration of the experiment unless otherwise indicated. As a control, cells were incubated with the solution used to dissolve peptide. Cells were assessed by flow cytometry on a Stratedigm-13 flow cytometer to determine reporter protein expression at 48 h.p.i. unless otherwise indicated. In some experiments, peptides were added at various times after infection and were left in the medium for the duration of the experiment.

HPV16 PsV [2] = test: Inhibition of HPV16 PsV infection of HaCaT keratinocytes; conditions: 14 μM, MOI of 1, 48 h.p.i.
From the text: FIG. 18A (top) depicts sequences of L2 peptides. […] Amino acid substitutions in the CPP or RBS mutant peptides are shown in orange and blue, respectively. Bottom: RBS and flanking sequences of indicated HPV L2 proteins or DMT1-II. FIG. 18B depicts an inhibitory dose-response curve for P16/16 peptide. 5×10^4 HeLa-S3 in 24-well plates were pretreated with various concentrations of P16/16 for one hour prior to infection with HPV pseudovirus (PsV) at multiplicity of infection (MOI) of 1. Peptide was left in the medium for the duration of the experiment. Cells were assessed by flow cytometry to determine the fraction of cells expressing reporter protein HcRed at 48 hours post-infection (h.p.i.). […] Forty-eight h.p.i., cells were assessed by flow cytometry to determine fraction of cells expressing reporter protein HcRed. […] HaCaT keratinocytes were infected at MOI of 1 with HPV16 PsV in the presence and absence of 14 μM P16/16, and infectivity was assessed 48 h.p.i. by flow cytometry for HcRed fluorescence. […] Successful infection by HPV16 and HPV16 PsV was assessed by quantitative reverse transcription-PCR (qRT-PCR) for expression of HPV early region and HcRed mRNA, respectively, and normalized to infection by the cognate virus in the absence of peptide. Background signal determined with non-cognate primers was <0.01%.

`CC[C@H](C)[C@H](NC(=O)[C@@H](NC(=O)[C@H](Cc1ccc(O)cc1)NC(=O)[C@H](CCC(N)=O)NC(=O)[C@@H]1CCCN1C(=O)[C@H](CO)NC(=O)[C@@H](N)CS)[C@@H](C)O)C(=O)N[C@H](C(=O)N[C@@H](C)C(=O)N[C@@H](CC(=O)O)C(=O)N[C@@H](C)C(=O)NCC(=O)N[C@@H](CC(=O)O)C(=O)N[C@@H](Cc1ccccc1)C(=O)N[C@@H](Cc1ccc(O)cc1)C(=O)N[C@@H](CC(C)C)C(=O)N[C@@H](Cc1c[nH]cn1)C(=O)N1CCC[C@H]1C(=O)N[C@@H](CO)C(=O)N[C@@H](Cc1ccc(O)cc1)C(=O)N[C@@H](Cc1ccc(O)cc1)C(=O)N[C@@H](CCSC)C(=O)N[C@@H](CC(C)C)C(=O)N[C@@H](CCCNC(=N)N)C(=O)N[C@@H](CCCCN)C(=O)N[C@@H](CCCNC(=N)N)C(=O)N[C@@H](CCCNC(=N)N)C(=O)N[C@@H](CCCCN)C(=O)N[C@@H](CCCNC(=N)N)C(=O)O)[C@@H](C)CC` [P16/16] was tested, and the virus internalization (HPV16 PsV [1]) was “did not inhibit virus internalization”, the “TGN46/L1 PLA at 16 h.p.i.” value (TGN46 / HPV16 L1) was “inhibited the arrival of HPV in the TGN” and the “inhibition of HPV5 PsV infection” value (HPV5 PsV) was “potently inhibited infection”. The “time of peptide addition for effective inhibition” value (HPV16 pseudovirus (PsV); 14 μM peptide added at time of infection or at indicated h.p.i.) was “needed to be added during the first few hours of infection”, the persistence of inhibition (HPV16 pseudovirus (PsV); 14 μM peptide left in medium, 48, 72, or 96 h.p.i.) was “at least 96 h.p.i” and the “inhibition of HPV16 PsV infection” value (HPV16 pseudovirus (PsV); 14 μM peptide, MOI of 1, 48 h.p.i.) was “statistically significant (p<0.01) inhibition”. For the same compound, the “infection after removal of peptide” value (HPV16 pseudovirus (PsV); peptide removed from the medium after 24 hours) was “infection was not restored over the next three days”, the “reduction in infection, dose-response” value (HPV16 pseudovirus (PsV); various concentrations of peptide, MOI of 1, 48 h.p.i.) was “dose-dependent reduction in infection” and the “inhibition of HPV16 PsV infection in HaCaT” value (HPV16 PsV [2]) was “inhibited infection”.
